Test results reported in ChEMBL document CHEMBL1133138, “Substituted 2-aminopyridines as inhibitors of nitric oxide synthases” (Bioorg Med Chem Lett, 2000).

Legend:
[1] = molecular target: Nitric oxide synthase, inducible (Homo sapiens, UniProt P35228)
[2] = molecular target: T1, Nitric oxide synthase 3 (Homo sapiens, UniProt P29474)
T1 sequence (P29474 whole entry): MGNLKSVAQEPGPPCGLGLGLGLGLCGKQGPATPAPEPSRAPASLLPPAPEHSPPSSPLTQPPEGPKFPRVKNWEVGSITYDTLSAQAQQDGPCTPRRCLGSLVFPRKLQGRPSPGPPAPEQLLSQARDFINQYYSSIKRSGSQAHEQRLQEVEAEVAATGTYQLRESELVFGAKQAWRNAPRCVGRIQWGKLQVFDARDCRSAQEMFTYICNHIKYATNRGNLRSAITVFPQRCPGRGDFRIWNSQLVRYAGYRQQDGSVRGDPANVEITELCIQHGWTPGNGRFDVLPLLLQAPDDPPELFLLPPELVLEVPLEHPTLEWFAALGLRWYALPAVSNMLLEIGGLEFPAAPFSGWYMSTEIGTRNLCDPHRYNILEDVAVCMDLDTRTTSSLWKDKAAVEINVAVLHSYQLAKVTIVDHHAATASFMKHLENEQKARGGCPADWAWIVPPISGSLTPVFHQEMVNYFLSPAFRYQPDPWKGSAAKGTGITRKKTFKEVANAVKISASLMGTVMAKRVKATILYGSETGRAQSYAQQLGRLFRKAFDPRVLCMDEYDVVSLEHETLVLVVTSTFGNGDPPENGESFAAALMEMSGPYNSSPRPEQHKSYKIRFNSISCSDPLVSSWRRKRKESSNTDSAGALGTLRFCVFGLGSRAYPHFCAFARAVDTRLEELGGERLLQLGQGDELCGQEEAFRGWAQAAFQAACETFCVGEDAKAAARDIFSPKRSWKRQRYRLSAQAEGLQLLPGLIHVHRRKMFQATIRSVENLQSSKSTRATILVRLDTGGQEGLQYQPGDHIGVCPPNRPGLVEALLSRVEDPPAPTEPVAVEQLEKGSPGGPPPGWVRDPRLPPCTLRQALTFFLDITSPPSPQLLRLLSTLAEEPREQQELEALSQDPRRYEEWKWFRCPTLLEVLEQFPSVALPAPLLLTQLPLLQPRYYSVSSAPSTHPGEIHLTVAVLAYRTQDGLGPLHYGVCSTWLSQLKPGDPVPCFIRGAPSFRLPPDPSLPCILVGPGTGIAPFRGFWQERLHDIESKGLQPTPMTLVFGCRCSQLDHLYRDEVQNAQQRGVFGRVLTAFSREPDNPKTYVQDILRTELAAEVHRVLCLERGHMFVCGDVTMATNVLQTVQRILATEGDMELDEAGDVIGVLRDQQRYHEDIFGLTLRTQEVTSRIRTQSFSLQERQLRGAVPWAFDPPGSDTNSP

[3] = molecular target: T2, Nitric oxide synthase 1 (Homo sapiens, UniProt P29475); assay: Inhibitory activity against Neuronal nitric oxide synthase; conditions: concentration not given here
[4] = molecular target: T3, Nitric oxide synthase 3 (Homo sapiens) (UniProt P29474); assay: Inhibitory activity against Endothelial nitric oxide synthase; conditions: concentration not given here
T3 sequence (whole entry): T1 sequence (P29474 whole entry)

[5] = molecular target: T2, Nitric oxide synthase 1
[6] = system: Mus musculus; assay: Compound was evaluated for LPS induced nitric oxide increase in mouse plasma after peroral administration of the compound; assay type: functional; conditions: po
[7] = system: Rattus norvegicus; assay: Dose required to increase mean aterial blood pressure (MAP) by 40 mm versus control after intravenous administration in rats; assay type: functional
[8] = system: Rattus norvegicus; assay: Dose required to increase mean aterial blood pressure (MAP) by 40 mm versus control after intravenous administration in rat; assay type: functional

Nitric oxide synthase, inducible, sequence (P35228 whole entry): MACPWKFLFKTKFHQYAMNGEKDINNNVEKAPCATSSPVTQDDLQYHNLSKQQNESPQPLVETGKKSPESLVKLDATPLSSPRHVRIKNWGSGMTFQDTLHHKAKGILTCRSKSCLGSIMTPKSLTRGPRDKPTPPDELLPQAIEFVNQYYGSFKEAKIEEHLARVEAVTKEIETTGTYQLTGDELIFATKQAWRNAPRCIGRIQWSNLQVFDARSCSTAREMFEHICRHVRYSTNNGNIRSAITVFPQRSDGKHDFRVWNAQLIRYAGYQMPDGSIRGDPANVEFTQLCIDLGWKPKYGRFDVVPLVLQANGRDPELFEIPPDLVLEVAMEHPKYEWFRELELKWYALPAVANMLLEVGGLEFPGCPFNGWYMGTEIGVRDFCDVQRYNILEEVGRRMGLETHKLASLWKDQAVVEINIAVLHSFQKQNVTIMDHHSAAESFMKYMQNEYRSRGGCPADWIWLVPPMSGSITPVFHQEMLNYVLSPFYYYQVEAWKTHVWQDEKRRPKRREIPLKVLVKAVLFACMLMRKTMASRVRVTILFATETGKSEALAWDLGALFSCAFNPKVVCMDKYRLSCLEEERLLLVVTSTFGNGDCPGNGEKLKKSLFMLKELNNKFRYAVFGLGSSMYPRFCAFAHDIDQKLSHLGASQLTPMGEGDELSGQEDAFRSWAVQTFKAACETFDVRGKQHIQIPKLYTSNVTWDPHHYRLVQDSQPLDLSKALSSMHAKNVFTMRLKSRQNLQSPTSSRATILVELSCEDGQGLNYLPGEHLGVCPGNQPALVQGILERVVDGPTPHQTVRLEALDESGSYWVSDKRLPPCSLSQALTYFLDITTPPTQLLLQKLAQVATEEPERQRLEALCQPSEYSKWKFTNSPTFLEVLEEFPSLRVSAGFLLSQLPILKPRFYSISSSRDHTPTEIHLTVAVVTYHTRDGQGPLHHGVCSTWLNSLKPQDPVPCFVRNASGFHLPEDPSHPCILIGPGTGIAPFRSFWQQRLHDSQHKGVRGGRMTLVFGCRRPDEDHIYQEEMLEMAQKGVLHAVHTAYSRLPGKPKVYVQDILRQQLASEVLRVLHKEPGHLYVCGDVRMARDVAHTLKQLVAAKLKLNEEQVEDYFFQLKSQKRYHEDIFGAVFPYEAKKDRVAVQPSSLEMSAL
T2 sequence (P29475 whole entry): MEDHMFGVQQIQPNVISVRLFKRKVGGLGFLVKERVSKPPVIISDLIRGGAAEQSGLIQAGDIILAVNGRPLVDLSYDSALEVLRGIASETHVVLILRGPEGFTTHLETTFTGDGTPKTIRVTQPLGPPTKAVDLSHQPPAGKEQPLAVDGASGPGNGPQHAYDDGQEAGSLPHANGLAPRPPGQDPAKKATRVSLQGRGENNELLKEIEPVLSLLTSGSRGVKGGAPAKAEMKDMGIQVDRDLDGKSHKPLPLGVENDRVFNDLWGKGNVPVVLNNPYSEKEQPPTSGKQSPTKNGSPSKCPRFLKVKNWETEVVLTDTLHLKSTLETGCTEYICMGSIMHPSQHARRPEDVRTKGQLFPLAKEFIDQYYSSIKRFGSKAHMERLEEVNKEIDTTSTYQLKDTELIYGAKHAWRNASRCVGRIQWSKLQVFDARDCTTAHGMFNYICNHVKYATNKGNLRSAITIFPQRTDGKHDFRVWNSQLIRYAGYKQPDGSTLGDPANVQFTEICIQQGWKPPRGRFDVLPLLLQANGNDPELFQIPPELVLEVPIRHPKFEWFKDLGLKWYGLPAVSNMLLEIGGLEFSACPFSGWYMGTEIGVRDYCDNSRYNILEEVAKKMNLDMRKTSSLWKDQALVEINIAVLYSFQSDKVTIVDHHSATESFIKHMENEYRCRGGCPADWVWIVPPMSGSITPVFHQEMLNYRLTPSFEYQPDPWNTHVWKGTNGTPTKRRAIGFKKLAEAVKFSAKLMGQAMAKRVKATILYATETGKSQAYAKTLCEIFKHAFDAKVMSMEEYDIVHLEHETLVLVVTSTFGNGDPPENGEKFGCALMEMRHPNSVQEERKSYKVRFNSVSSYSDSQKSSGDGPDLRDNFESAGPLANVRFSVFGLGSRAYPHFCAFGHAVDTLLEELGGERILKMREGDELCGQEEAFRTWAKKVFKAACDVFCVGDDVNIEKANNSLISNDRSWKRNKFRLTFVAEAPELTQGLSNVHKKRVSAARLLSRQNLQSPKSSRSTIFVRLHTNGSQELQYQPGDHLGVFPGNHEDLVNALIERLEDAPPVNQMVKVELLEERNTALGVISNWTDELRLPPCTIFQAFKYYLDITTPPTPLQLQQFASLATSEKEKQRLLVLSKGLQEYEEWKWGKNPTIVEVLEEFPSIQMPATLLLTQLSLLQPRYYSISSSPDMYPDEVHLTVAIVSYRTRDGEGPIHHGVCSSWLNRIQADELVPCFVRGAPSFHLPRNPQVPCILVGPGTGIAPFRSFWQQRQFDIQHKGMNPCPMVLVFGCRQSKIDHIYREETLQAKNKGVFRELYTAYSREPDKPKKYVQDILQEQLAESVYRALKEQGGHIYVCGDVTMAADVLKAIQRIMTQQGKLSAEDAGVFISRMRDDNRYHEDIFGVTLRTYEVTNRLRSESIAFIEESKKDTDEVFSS

| IC50 [1] | IC50 [2] | IC50 [5] | SMILES | further results |
| --- | --- | --- | --- | --- |
| 0.059 µM |  |  | Cc1ccnc(N)c1N |  |
| > 50 µM |  |  | CCCc1ccnc(N)c1 |  |
| 2.7 µM | 3.3 µM |  | CCc1c(C)ccnc1N |  |
| 0.046 µM |  |  | CCCCc1cc(C)cc(N)n1 | inhibition [3]: 59%; inhibition [4]: 40% |
| 0.028 µM | 0.15 µM | 0.1 µM | Cc1cc(N)nc(CC(C)C)c1 |  |
| 0.94 µM |  | 1.3 µM | Cc1cccnc1N |  |
| 0.076 µM | 1.9 µM | 0.51 µM | Cc1cc(N)nc(CCC(C)C)c1 |  |
| 34.5 µM |  |  | CCCc1c(C)ccnc1N |  |
| 14.6 µM | 3.6 µM | 2 µM | Cc1cnc(N)c(C)c1 |  |
| 1.4 µM | 7.9 µM | 18.4 µM | CC(=N)NCCCC[C@H](N)C(=O)O [L-NIL] |  |
| > 50 µM | > 50 µM | > 50 µM | Nc1ccc2c(n1)CCC2 |  |
|  |  |  | Cc1ccnc(N)c1 | ED50 [6]: 25 mg/kg; HD40 [7]: 0.11 mg/kg |
| 4.1 µM | 16.6 µM | 10.6 µM | Nc1cc2c(cn1)CCCC2 |  |
| 0.6 µM |  |  | Cc1ccc(N)nc1 |  |
| > 50 µM |  |  | Nc1cc(Cl)ccn1 |  |
| 0.016 µM |  |  | CC1CCN=C(N)C1 (stereo not drawn) | ED50 [6]: 0.15 mg/kg; HD50 [8]: 1.8 mg/kg |
| 29 µM | 24 µM | 11 µM | Nc1nccc2c1CCCC2 |  |
| 12.7 µM | 17.2 µM | 3.3 µM | Cc1cc(N)nc(CCCc2ccccc2)c1 |  |
| 7.2 µM | 2.8 µM | 2.2 µM | Cc1ccc(N)nc1C |  |
| 0.11 µM | 0.2 µM | 1.2 µM | Cc1cc(N)nc(C(C)C)c1 |  |
| 0.81 µM | 0.6 µM | 0.34 µM | Cc1cnc(N)cc1C |  |
| > 50 µM |  |  | Nc1cc2ccccc2cn1 [ISOQUINOLIN-3-AMINE] |  |
| 4 µM | 19.8 µM | 2.4 µM | Cc1cc(N)nc2c1CCCC2 |  |
| 1.3 µM | 3.4 µM | 0.61 µM | CCc1cnc(N)cc1C |  |
| 0.11 µM | 0.045 µM |  | Cc1cc(C)nc(N)c1 |  |
|  | 0.15 µM |  | Cc1ccnc(N)c1C |  |
| 0.33 µM | 0.049 µM |  | CCc1cc(C)cc(N)n1 | inhibition [3]: 42% |

| SMILES | IC50 [1] | IC50 [2] | IC50 [5] | further results |
| --- | --- | --- | --- | --- |
| N=C(N)NN [PIMAGEDINE] | 101 µM | 500 µM | 118 µM |  |
| Nc1ccccn1 [2-AMINOPYRIDINE] | 1.9 µM | 2.8 µM |  |  |
